The text below walks through data of US20230219965A1 (KSQ Therapeutics, Inc., priority 2020, published 2023).

Like-named read-outs stand apart in the source and are kept apart here.

In one data set the target is USP1/UAF1 enzyme (Homo sapiens, UniProt O94782). Put plainly: USP1/UAF1 deubiquitination assay (ubiquitin-rhodamine 110 substrate). In kind it is biochemical. To be noted: read-out: USP1 IC50 (Ub-Rho). Put shortly:
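Cleavage of 150 nM ubiquitin-rhodamine 110 by 0.05 nM USP1/UAF1 was followed as fluorescence (Ex480/Em540, kinetic, 30 min) in Tris-HCl pH 7.8 buffer with EDTA, BSA, DTT and Tween-20. Compounds, top 10 μM, were preincubated with enzyme 10 min; % inhibition against no-enzyme and DMSO wells gave four-parameter IC50s.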

Data set [1] deals with Ub-PCNA levels in the nucleus of ES2 cells (USP1 activity). As to the kind of experiment: ES2 Ub-PCNA immunofluorescence (IF) assay. It is filed as cell-based. To be noted: ES2 cells, 3 hours, Ub-PCNA immunofluorescence, read-out: USP1 IC50 (Ub-PCNA). In a few lines:
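AC50 derived from percent Ub-PCNA-positive nuclei, positivity set by a 95% cutoff from untreated-well intensities. Readout by imaging immunofluorescence (anti-Ub-PCNA, DAPI nuclear mask) after methanol fixation. Compound exposure: 3 h at 37° C, 0.3% DMSO final, on cells plated overnight.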

Data set [2] is described as follows: ADME solubility determination in PBS at pH 2.0 and pH 7.4. To be noted: for solubility at 24 h: phosphate buffered saline, 25 °C, thermodynamic from solid. In kind it is physicochemical. In a few lines:
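Solubility was read by LC-MS/MS on centrifuged supernatants, calibrated to a known-concentration standard and corrected for dilution. Compound, dried down from 10 mM DMSO stock, was equilibrated 24 h at 25° C with shaking in PBS at pH 2.0 or pH 7.4.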

A short description of data set [3]: Liver microsomal metabolic stability, rat liver microsomes (RLM). To be noted: 1 μM compound, 1 mg/mL microsomes, NADPH; for half-life at 1 μM: rat, liver microsomes, t1/2 (min) in RLM. On the technique in general: Liver microsomes are vesicles of endoplasmic reticulum, rich in cytochrome P450 enzymes.
Data set [4] in a line: Liver microsomal metabolic stability, human liver microsomes (HLM). The settings on record: for half-life at 1 μM: human, liver microsomes.
Where [5] appears, read: pH 2, aqueous buffer, PBS pH 2.0, 25° C., read-out: Solubility at pH 2.0.
Where [6] appears, read: pH 7.4, aqueous buffer, PBS pH 7.4, 25° C., read-out: Solubility at pH 7.4.

One may read the IC50 as the midpoint of a concentration-inhibition curve. Usually solubility stands for how much of the substance goes into solution per volume. In general, half-life refers to the time in which the quantity being followed falls by half. Lower therefore signals rapid decline.

Sequence of USP1/UAF1 enzyme (O94782 whole entry): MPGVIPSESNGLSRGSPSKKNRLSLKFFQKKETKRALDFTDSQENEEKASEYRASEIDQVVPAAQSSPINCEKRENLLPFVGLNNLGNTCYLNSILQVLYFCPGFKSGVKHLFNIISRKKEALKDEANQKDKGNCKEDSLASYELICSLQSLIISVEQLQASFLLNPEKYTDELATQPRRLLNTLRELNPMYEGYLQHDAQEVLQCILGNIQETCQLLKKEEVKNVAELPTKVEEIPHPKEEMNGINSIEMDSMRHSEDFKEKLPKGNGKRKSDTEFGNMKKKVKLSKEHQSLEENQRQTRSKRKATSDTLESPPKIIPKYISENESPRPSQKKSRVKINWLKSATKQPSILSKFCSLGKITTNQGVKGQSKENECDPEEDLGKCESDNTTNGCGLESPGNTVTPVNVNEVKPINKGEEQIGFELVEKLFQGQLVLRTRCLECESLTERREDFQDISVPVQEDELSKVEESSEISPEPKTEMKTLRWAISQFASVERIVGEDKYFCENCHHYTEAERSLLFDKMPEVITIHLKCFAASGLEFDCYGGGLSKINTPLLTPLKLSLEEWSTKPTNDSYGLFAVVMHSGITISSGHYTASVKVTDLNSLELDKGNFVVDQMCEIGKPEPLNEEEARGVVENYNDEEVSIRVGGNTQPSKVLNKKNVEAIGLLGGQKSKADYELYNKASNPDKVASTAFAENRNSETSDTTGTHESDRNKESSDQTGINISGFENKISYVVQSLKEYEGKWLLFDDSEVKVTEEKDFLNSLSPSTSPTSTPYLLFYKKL
Sequence of USP1/UAF1 enzyme (Q8TAF3 whole entry partner): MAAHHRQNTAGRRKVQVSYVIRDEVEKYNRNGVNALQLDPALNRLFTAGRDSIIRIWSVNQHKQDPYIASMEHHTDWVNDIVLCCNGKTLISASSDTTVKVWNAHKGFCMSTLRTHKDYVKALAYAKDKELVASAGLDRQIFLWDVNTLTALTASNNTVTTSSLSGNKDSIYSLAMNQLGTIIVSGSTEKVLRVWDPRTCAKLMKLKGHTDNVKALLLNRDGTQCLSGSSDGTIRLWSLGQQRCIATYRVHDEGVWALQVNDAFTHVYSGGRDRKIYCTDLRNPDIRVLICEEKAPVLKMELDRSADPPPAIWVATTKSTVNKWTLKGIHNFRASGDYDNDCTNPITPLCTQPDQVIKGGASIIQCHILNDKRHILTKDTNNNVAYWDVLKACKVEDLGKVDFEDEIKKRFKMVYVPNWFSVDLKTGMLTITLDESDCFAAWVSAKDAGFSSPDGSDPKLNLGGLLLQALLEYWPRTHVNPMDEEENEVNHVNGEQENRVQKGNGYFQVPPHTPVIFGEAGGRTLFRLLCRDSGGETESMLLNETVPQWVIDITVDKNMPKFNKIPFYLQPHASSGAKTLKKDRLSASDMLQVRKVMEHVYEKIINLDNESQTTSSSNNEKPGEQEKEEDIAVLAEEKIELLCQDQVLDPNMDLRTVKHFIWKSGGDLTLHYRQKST

Regarding `CCn1cc(C(F)(F)F)nc1-c1ccc(CN2C(=O)C(N)Cn3nc(-c4c(Cl)cnn4C(C)C)cc32)cc1` (stereo not drawn) [Example 233, 6-amino-2-(4-chloro-1-isopropyl-1H-pyrazol-5-yl)-4-(4-(1-ethyl-4-(trifluoromethyl)-1H-imidazol-2-yl)benzyl)-6,7-dihydropyrazolo[1,5-α]pyrimidin-5(4H)-one], the results for the IC50 (at USP1/UAF1 enzyme; in data set [1]) were under 100 nM and 100 to 500 nM, respectively. Further, the “Solubility at pH 2.0 (μM)” value in data set [2] (PBS pH 2.0, 25° C., 24 hours) is recorded as “++ (“++” indicates 10 μM or greater)”. In addition, the “Solubility at pH 7.4 (μM)” value in data set [2] (PBS pH 7.4, 25° C., 24 hours) was “+ (“+” indicates less than 10 μM)”. Moreover, the “t1/2 (min) in RLM” value in data set [3] was “++ (“++” indicates 25 minutes greater)”. Besides, the “t1/2 (min) in HLM” value in data set [4] (human liver microsomes, 1 μM compound, 1 mg/mL microsomes, NADPH) is listed as “++ (“++” indicates 25 minutes greater)”.

`COc1ncnc(C2CC2)c1-c1nc2n(n1)CCC(=O)N2Cc1ccc(-c2nc(C(F)(F)F)cn2C)cc1` [Example 43]: the IC50 is under 100 nM at USP1/UAF1 enzyme and 100 to 500 nM in data set [1] (Homo sapiens, ES-2). Besides, the figures for the solubility at 24 h in data set [2] (setting [5]) and in data set [2] (setting [6]) were at least 10 µM and under 10 µM, respectively. In addition, the half-life at 1 μM in data set [3] and in data set [4] was over 25 min each time.

`CC(C)n1cc(C(F)(F)F)nc1-c1ccc(C(N2CCCn3nc(-c4c(Cl)cnn4C(C)C)cc32)C(F)(F)F)cc1F` (stereo not drawn) [Example 371, 2-(4-chloro-1-isopropyl-1H-pyrazol-5-yl)-4-(2,2,2-trifluoro-1-(3-fluoro-4-(1-isopropyl-4-(trifluoromethyl)-1H-imidazol-2-yl)phenyl)ethyl)-4,5,6,7-tetrahydropyrazolo[1,5-α]pyrimidine]: the 50% inhibitory concentration (IC50) on USP1/UAF1 enzyme is under 100 nM; in data set [1] (Homo sapiens, ES-2) it was under 100 nM. Also, the solubility at 24 h in data set [2] (setting [5]) and in data set [2] (setting [6]) was under 10 µM in each case. The half-life at 1 μM in data set [3] and in data set [4] was under 25 min each time.

As to `CCn1cc(C(F)(F)F)nc1-c1ccc(CN2C(=O)CCn3nc(-c4c(Cl)cnn4C4(COC)CC4)cc32)cc1` [Example 159], the IC50 on USP1/UAF1 enzyme was under 100 nM; in data set [1] (Homo sapiens, ES-2), 100 to 500 nM. The solubility at 24 h in data set [2] (setting [5]) and in data set [2] (setting [6]) was under 10 µM each time. Besides, the half-life at 1 μM in data set [3] is under 25 min; in data set [4] it was over 25 min.

Turning to `CCn1cc(C(F)(F)F)nc1-c1ccc(CN2C(=O)CCn3nc(-c4c(OC)ncnc4C4CC4)cc32)cc1F` [Example 78], the IC50 at USP1/UAF1 enzyme was under 100 nM; in data set [1] (Homo sapiens, ES-2), under 100 nM. Besides, the solubility at 24 h in data set [2] (setting [5]) and in data set [2] (setting [6]) was under 10 µM throughout. Besides, the half-life at 1 μM in data set [3] and in data set [4] was over 25 min each time.

As for `COc1cc(C)nn1-c1ccc(CN2C(=O)CCn3nc(-c4c(Cl)cnn4C(C)C)cc32)cc1` [Example 135], the concentration for half-maximal inhibition (IC50) on USP1/UAF1 enzyme is under 100 nM; in data set [1] (Homo sapiens, ES-2), under 100 nM. The solubility at 24 h in data set [2] (setting [5]) and in data set [2] (setting [6]) was under 10 µM throughout. In addition, the half-life at 1 μM in data set [3] and in data set [4] was under 25 min each time.

For `COc1cc(CN2C(=O)CCn3nc(-c4c(Cl)cnn4C(C)C)nc32)ccc1-c1nc(C(F)(F)F)cn1C(C)C` [Example 165], the IC50 is under 100 nM at USP1/UAF1 enzyme and 100 to 500 nM in data set [1] (Homo sapiens, ES-2). Besides, the solubility at 24 h in data set [2] (setting [5]) and in data set [2] (setting [6]) was under 10 µM each time. Besides, the half-life at 1 μM in data set [3] and in data set [4] was over 25 min in each case.

In the case of `CCn1cc(C(F)(F)F)nc1-c1ccc(CN2C(=O)CCn3nc(-c4c(Cl)cnn4C(C)C)cc32)cc1` [Example 97], the IC50 is under 100 nM on USP1/UAF1 enzyme and under 100 nM in data set [1] (Homo sapiens, ES-2). For the same molecule, the solubility at 24 h in data set [2] (setting [5]) and in data set [2] (setting [6]) was under 10 µM in each case. For the same molecule, the half-life at 1 μM in data set [3] and in data set [4] was over 25 min in each case.

On to `CCn1cc(C(F)(F)F)nc1-c1ccc(NC2CCCn3nc(-c4c(Cl)cnn4C(C)C)cc32)cn1` (stereo not drawn) [Example 245, 2-(4-chloro-1-isopropyl-1H-pyrazol-5-yl)-N-(6-(1-ethyl-4-(trifluoromethyl)-1H-imidazol-2-yl)pyridin-3-yl)-4,5,6,7-tetrahydropyrazolo[1,5-a]pyridin-4-amine], for which the concentration for half-maximal inhibition (IC50) is under 100 nM at USP1/UAF1 enzyme and 100 to 500 nM in data set [1] (Homo sapiens, ES-2). For the same molecule, the solubility at 24 h in data set [2] (setting [5]) and in data set [2] (setting [6]) was under 10 µM throughout. The half-life at 1 μM in data set [3] and in data set [4] was over 25 min throughout.

For `CCn1cc(C(F)(F)F)nc1-c1ccc(Cn2c(=O)ccn3nc(-c4c(OC)ncnc4C4CC4)cc23)cc1` [Example 332, 2-(4-cyclopropyl-6-methoxypyrimidin-5-yl)-4-(4-(1-ethyl-4-(trifluoromethyl)-1H-imidazol-2-yl)benzyl)pyrazolo[1,5-α]pyrimidin-5(4H)-one], the IC50 at USP1/UAF1 enzyme is under 100 nM; in data set [1] (Homo sapiens, ES-2), under 100 nM. Besides, the solubility at 24 h in data set [2] (setting [5]) and in data set [2] (setting [6]) was at least 10 µM in each case. For the same molecule, the half-life at 1 μM in data set [3] and in data set [4] was over 25 min in each case.

For `CCn1cc(C(F)(F)F)nc1-c1ccc(N[C@H]2CCCn3nc(-c4c(OC)ncnc4C4CC4)cc32)cc1` (single isomer, unassigned) [Example 242], the IC50 on USP1/UAF1 enzyme was under 100 nM; in data set [1] (Homo sapiens, ES-2), 100 to 500 nM. Besides, the solubility at 24 h in data set [2] (setting [5]) and in data set [2] (setting [6]) was under 10 µM throughout. In addition, the half-life at 1 μM in data set [3] and in data set [4] was over 25 min throughout.

For `CCn1cc(C(F)(F)F)nc1-c1ccc([C@@H](C)n2c(=O)ccn3nc(-c4c(OC)ncnc4C4CC4)cc23)cc1F` [Example 333, (R)-2-(4-cyclopropyl-6-methoxypyrimidin-5-yl)-4-(1-(4-(1-ethyl-4-(trifluoromethyl)-1H-imidazol-2-yl)-3-fluorophenyl)ethyl)pyrazolo[1,5-α]pyrimidin-5(4H)-one], the concentration for half-maximal inhibition (IC50) at USP1/UAF1 enzyme was under 100 nM; in data set [1] (Homo sapiens, ES-2) it was under 100 nM. The solubility at 24 h in data set [2] (setting [5]) and in data set [2] (setting [6]) was under 10 µM in each case. Further, the half-life at 1 μM in data set [3] and in data set [4] was over 25 min throughout.

`Cc1cnn(C(C)C)c1-c1cc2n(n1)CCC(=O)N2Cc1ccc(-n2nc(C(F)(F)F)cc2C)cc1` [Example 10, 2-(1-isopropyl-4-methyl-1H-pyrazol-5-yl)-4-(4-(5-methyl-3-(trifluoromethyl)-1H-pyrazol-1-yl)benzyl)-6,7-dihydropyrazolo[1,5-a]pyrimidin-5(4H)-one]: the half-maximal inhibitory concentration (IC50) is under 100 nM at USP1/UAF1 enzyme and 100 to 500 nM in data set [1] (Homo sapiens, ES-2). Further, the solubility at 24 h in data set [2] (setting [5]) and in data set [2] (setting [6]) was under 10 µM throughout. Also, the half-life at 1 μM in data set [3] and in data set [4] was under 25 min in each case.

Turning to `CCn1cc(C(F)(F)F)nc1-c1ccc(C(C)n2c(=O)ccn3nc(-c4c(OC)ncnc4C4CC4)nc23)cc1` (stereo not drawn) [Example 340, 2-(4-cyclopropyl-6-methoxypyrimidin-5-yl)-4-(1-(4-(1-ethyl-4-(trifluoromethyl)-1H-imidazol-2-yl)phenyl)ethyl)-[1,2,4]triazolo[1,5-a]pyrimidin-5(4H)-one], the IC50 on USP1/UAF1 enzyme is under 100 nM; in data set [1] (Homo sapiens, ES-2) it was under 100 nM. The solubility at 24 h in data set [2] (setting [5]) and in data set [2] (setting [6]) was at least 10 µM in each case. The half-life at 1 μM in data set [3] and in data set [4] was over 25 min in each case.
